The record followed here is ChEMBL document CHEMBL1121473, “Conformationally defined aromatic amino acids. Synthesis and stereochemistry of 2-endo- and 2-exo-amino-1,2,3,4-tetrahydro-1,4-ethanonaphthalene-2-carboxylic acids (2-endo- and 2-exo-aminobenzobicycle[2.2.2]octene-2-carboxylic acids)” (J Med Chem, 1980).

The subject of assay [1] is Enterococcus faecalis. As to the kind of experiment: Ability to inhibit the decarboxylation of L-phenyl-alanine using a crude enzyme preparation of phenylalanine decarboxylase (PAD) from Streptococcus faecalis at 1.76 mM concentration.
The test system of assay [2] is Enterococcus faecalis. As to the kind of experiment: ability to inhibit the decarboxylation of L-phenyl-alanine using a crude enzyme preparation of phenylalanine decarboxylase (PAD) from Streptococcus faecalis, at 1.76 mM concentration.
Assay [3] concerns Enterococcus faecalis. As to the kind of experiment: Ability to inhibit the decarboxylation of L-phenyl-alanine using a crude enzyme preparation of phenylalanine decarboxylase (PAD) from Streptococcus faecalis, at 1.76 mM concentration.
Assay [4] concerns Enterococcus faecalis. As to the kind of experiment: ability to inhibit the decarboxylation of L-phenyl-alanine using a crude enzyme preparation of phenylalanine decarboxylase (PAD) from Streptococcus faecalis, at 1 mM concentration.

Regarding `NC1(C(=O)O)CC2CC[C@@H]1c1ccccc12` (stereo in doubt; 1a), in assay [1], the inhibition (as a rule, the relative decrease from the control value, in per cent) worked out at 7%. In assay [2], `C[C@](N)(Cc1ccc(O)c(O)c1)C(=O)O` (racemic) came in with an inhibition of 8%. Take `NC1(C(=O)O)CC2CC[C@@H]1c1ccccc12` (stereo in doubt; 1b): in assay [3], the inhibition was found to be 8%. Turning to `N[C@@H](Cc1ccc(Cl)cc1)C(=O)O` (racemic), the inhibition in assay [4] worked out at 24%.
